# Assay results: a melting point compilation (Tetko et al.; mined from patent text by program, amines drawn as free bases though some values may be those of a salt)
row,SMILES,melting point
1,N#Cc1nn(-c2c(Cl)cc(C(F)(F)F)cc2Cl)c([N+](=O)[O-])c1OC(F)F,72.5 to 74 °C
2,CCOC(=O)C=Cc1cc(Cl)ccc1Cl,34 to 36 °C
3,COC(=O)COc1ccc(C(=O)c2ccccc2)c(O)c1,131 to 134 °C
4,CCCCCCCCCCCCCCOc1ccc(COC(=O)Oc2ccccc2)cc1,34 to 35 °C
5,CC1(C)CC(C)(c2ccc(Oc3cccc([N+](=O)[O-])c3)cc2)c2cc(Oc3cccc([N+](=O)[O-])c3)ccc21 (stereo not given),90 to 92 °C
6,CC1=C(c2ccncc2)SC(c2ccc(O)cc2)C(=O)N1 (stereo not given),198 to 200 °C
7,CSC(=S)N1CCN(Cc2cc(OC(C)=O)c(OC(C)=O)c(OC(C)=O)c2)CC1,141 to 143 °C
8,COc1ccc(Br)c(C(=O)N2CCN(S(=O)(=O)c3ccc(Cl)cc3)CC2)c1,188 °C
9,C=CC12CCc3cc(O)ccc3C1CCC1(C)C(=O)CCC12 (stereo not given),239 to 242 °C
10,COc1cc(C(=O)NS(=O)(=O)Cc2ccccc2C(F)(F)F)nc(C)n1,120 to 122 °C
11,CC(C)(C)OC(=O)Nc1ccc(Nc2nc(-c3ccc4cc(OCc5ccccc5)ccc4c3)cc3ccnn23)cc1,189 °C
12,CCOC(=O)C1=C(C)N=C(SCc2ccc(OC)cc2)N(C(=O)OCC)C1c1ccccc1SC (stereo not given),87 to 89 °C
13,COC(=O)COc1cc(C)nc(NC(=O)NS(=O)(=O)c2cccs2)n1,114 to 120 °C
14,O=C1c2c(O)cccc2C(Sc2ccccc2)c2cccc(O)c21,156 to 157 °C
15,O=c1cc[nH]c2nc(-c3ccncc3)ncc12,> 350 °C
16,CC(=O)c1ccc2c(c1)Sc1cc(C(C)=O)ccc1O2,179 °C
17,NS(=O)(=O)c1ccc(NC(=O)Nc2ccc(F)cc2)cc1,242 to 243 °C
18,CSc1cnn(-c2c(Cl)cc(C(F)(F)F)cc2Cl)c1N,106 to 108 °C
19,CCCCc1c(C(C)C)nc(C(C)C)c(CO)c1-c1ccccc1,83 to 84 °C
20,CCOC(=O)CCNC(=O)Nc1cc(-c2ccc3cc(NS(C)(=O)=O)ccc3c2)c(OC)c(C(C)(C)C)c1,> 300 °C
21,NS(=O)(=O)c1ccc(S(=O)(=O)c2ccc(OC(=O)c3cccnc3)cc2)s1,200 to 201 °C
22,COc1ccc(-c2cnc3c(-c4ccsc4)cnn3c2)cc1,191 to 193 °C
23,OCCCn1c(-c2c(Cl)cccc2Cl)nc(-c2ccncc2)c1-c1ccc(Cl)cc1,233 to 235 °C

row,SMILES,melting point
1,COCC1(C)CCCOc2cc(C#Cc3ccc(C(=O)O)cc3)ccc21 (stereo not given),112 °C
2,NC(=O)N1C(=O)C(C(=O)c2ccc(Cl)s2)c2cc(Cl)ccc21 (stereo not given),220 to 222 °C
3,Cc1cc2c(cc1F)N(C(=O)Nc1cccnc1)CC2,203 to 205 °C
4,O=C1c2c(O)ccc(O)c2C(=O)c2c(NCCN3CCCCC3CO)ccc(NCCN3CCCCC3CO)c21 (stereo not given),208 to 210 °C
5,CN(Cc1cc(C(F)(F)F)cc(C(F)(F)F)c1)C(=O)c1c(-c2ccccc2)c2ccccc2c(=S)n1C,145 to 147 °C
6,CCCC#Cc1ccnc2c1c(C(C)=O)cn2S(=O)(=O)c1ccccc1,134 to 136 °C
7,Cc1cc(C)c2c(n1)N(CCN1CCOCC1)c1ccccc1N(C)C2=O,133 to 135 °C
8,COCN(c1cccc2cc(C(=O)O)n(COC)c12)S(=O)(=O)c1cccs1,183 to 184 °C
9,COc1ccc2cccc(C(CNC(C)=O)COS(C)(=O)=O)c2c1 (stereo not given),104 to 106 °C
10,NS(=O)(=O)c1ncccc1OCCF,122 to 123 °C
11,CCC(CC)Nc1cc(C)nc(Oc2c(C)cc(C)cc2C)c1N,105 to 107 °C
12,c1ccc(Cc2ccc3c(c2)nc2n3CCCS2)cc1,145 to 147 °C
13,CCN(CC)C(=O)c1ccc2ccccc2c1-c1cccc(OC)c1,91 to 93 °C
14,Cc1ccccc1CC(=NC#N)NC(NC(=O)CCCCc1ccccc1)C(C)(C)C (stereo not given),151 to 152 °C
15,COc1cccc(S)c1S(=O)(=O)NC(C)(C)C,210 °C
16,CNc1cncc(C(=O)O)c1,239 to 242 °C
17,O=C(O)CCCCCCCn1c(-c2ccccc2)nc(-c2ccccc2)c1-c1ccccc1,162 °C
18,CCOP(=O)(OCC)C(Nc1nc2ccccc2s1)P(=O)(OCC)OCC,165 to 167 °C
19,CCOCC1=CC(=O)C=C2CCC3C4CCC(=O)C4(C)CCC3C21C (stereo not given),95 to 98 °C
20,NC(=O)c1cc(-c2ccc(Cl)cc2)n(-c2ccc(S(N)(=O)=O)cc2)n1,108 to 110 °C
21,Fc1cc(-c2ccc3nnn(Cc4ccc5ncccc5c4)c3n2)ccc1OC1CCOCC1,165 to 167 °C
22,CC(C)NC(=O)c1ccc(N2CCC(N3C(=O)OCc4ccccc43)CC2)nn1,120 °C
23,C#CCN(c1cc(-n2nc3ccc(Cl)cn3c2=O)c(F)cc1C#N)S(=O)(=O)CC,176 to 178 °C

row,SMILES,melting point
1,CCc1nc2c(N)nc3cccnc3c2n1CC1(O)CCN(C(=O)N2CCOCC2)CC1,> 255 °C
2,COc1ccc2c(c1)nc(C)n2-c1ccccc1,88 to 90 °C
3,O=C(O)c1ccc(C2CCNCC2)cc1,> 270 °C
4,O=C(O)C(=NO)C(c1ccc(OCc2ccc3ccccc3n2)cc1)c1ccc(OCc2ccc3ccccc3n2)cc1,183 to 185 °C
5,CCOC(=O)c1cnoc1-c1ccc(F)c(F)c1,64 to 65 °C
6,C#Cc1cc(Nc2ncnc3cnc(NC(=O)/C=C/CN(C)C)cc23)ccc1Cl,173 to 176 °C
7,CCCCN(CCCC)c1cc(OC)c(C=O)c(OC)c1,55 to 56 °C
8,COC(=O)c1cc(-c2nnnn2C)c(C(=O)OC)s1,149 to 151 °C
9,CC(C)(C)NC(=O)[C@@H]1CCCC[C@H]1C[C@@H](O)[C@H](Cc1ccccc1)NC(=O)[C@H](CC(N)=O)NC(=O)c1cc(Cl)cc(Cl)c1,220 to 226 °C
10,CCN(CC)CCOc1cccc2c1c1cc(Cl)ccc1n2Cc1ccccc1,96 to 97.5 °C
11,COC(=O)c1cncc(-c2ccc(OC)cc2)c1,99 to 101 °C
12,CC(C)=CCOc1ccc(C(=O)C=Cc2cccs2)c(O)c1,100 to 102 °C
13,NC(=O)C=Cc1cc2c(Oc3ccc(Br)cc3)cncc2s1,195 to 196 °C
14,COc1cccc2c(Nc3cccc(Br)c3)c(C#N)cnc12,210 to 212 °C
15,CCN(CC)CCOc1cccc2c1c1cccc(F)c1n2Cc1ccc(F)cc1,59 to 60 °C
16,COc1ccc2nc(Cl)cc(CC#N)c2c1,182 to 184 °C
17,COc1cc(C(=O)N2CCCC2CO)c([N+](=O)[O-])cc1OC (stereo not given),124 to 128 °C
18,Cn1nccc1[C@H](O)c1ccccc1,81 to 83 °C
19,NC1CCN(c2nc3c(cc2F)c(=O)c(C(=O)O)cn3C2CC2)C1 (stereo not given),266 to 267 °C
20,Nc1c(Nc2ccc(O)cc2)ncnc1-c1ccc(C(F)(F)F)cc1F,194 to 196 °C
21,CC(C)(C)OC(=O)[C@@H]1CCCN2C(=O)CC[C@H](NS(C)(=O)=O)C(=O)N12,68 to 70 °C
22,COc1cc(Oc2cccc(C(F)(F)F)c2)nc(C(=O)NC(OC)C(F)(F)F)c1 (stereo not given),102 to 104 °C

# Continued, values first:
row,melting point,SMILES
1,340 °C,O=c1ccn(-c2c(O)c3ccc(Cl)cc3[nH]c2=O)cc1
2,239 to 242 °C,Cn1c(=O)c(=NO)nc(-c2ccccc2)c2ccccc21
3,256 to 259 °C,O=C1Nc2cc(Cl)ccc2Cn2nnnc21
4,69 to 70 °C,COC=C(C(=O)OC)c1ccc(OC(C)=O)cc1
5,110 to 111 °C,COc1ncc(CNc2ccccc2C(=O)Nc2cccc(C(F)(F)F)c2)cc1Br
6,125 to 130 °C,Fc1ccc2c(c1)Sc1ccc(C(F)(F)F)cc1C2=C1CCNCC1
7,100 to 101 °C,NC(=O)c1cccc(OCCF)c1OCCF
8,113 to 114 °C,NC(=O)CCCCC(=O)c1ccccc1
9,166 to 169 °C,CCCCOc1ccc(Nc2c([N+](=O)[O-])ccc(Cl)c2C(=O)O)cc1
10,184 to 185 °C,O=C1c2ccccc2C(=O)N1CC(=O)N1Cc2ccccc2Oc2ccc(Cl)cc21
11,132 to 134 °C,COc1ccc(C(=O)Cc2ccc3ccccc3c2)cc1
12,233 to 236 °C,Cc1ccc(-c2cc3cc(C(=O)Nc4ccc(CN(C)C5CCOCC5)cc4)ccc3o2)cc1
13,123 to 124 °C,Cc1ccc(S(=O)(=O)OC[C@H]2CCC[C@H](OCc3c(Cl)cccc3Cl)O2)cc1 (relative stereo)
14,128 °C,CCOC(=O)/C(CCO)=C(\c1ccc(Cl)cc1)c1ccc(S(C)(=O)=O)cc1
15,73 to 77 °C,CC(Br)c1cccc2c(-c3ccccc3)onc12 (stereo not given)
16,91 to 94 °C,CC(NC(=O)c1cccc(C2(C)C(=O)Nc3cc(Cl)cc(Cl)c3C2=O)c1)c1ccccc1 (stereo not given)

row,melting point,SMILES
1,151 to 152 °C,C/C(=C(\C#N)C(=S)/N=C/N(C)C)N1CCC(c2ccccc2)CC1
2,186 to 188 °C,Nc1nnc(N2CCOCC2)s1
3,98 to 102 °C,CCCCC1(O)CCN(C(=O)C(c2ccccc2)n2cnc3[nH]ncc3c2=S)CC1 (stereo not given)
4,30 °C,CCOC(=O)c1cc(Br)c(C(=O)OCC)cc1F
5,107 to 108 °C,CCCN(CCC)CCCOc1ccc(S(=O)(=O)c2c(C)cn3ccccc23)cc1
6,152 to 154 °C,NCCSc1nc(-c2ccccc2)c(-c2ccccc2)[nH]1
7,151 to 154 °C,Cn1ccnc1SCC(=O)Nc1ccc(-c2ccccc2)cc1
8,214 °C,O=C(NN=Cc1cccc2ccccc12)c1cc2ccccc2cc1O
9,188 °C,COC(=O)c1cc(C(=O)c2c(C)c(OC)c3c(OCC(=O)OC(C)(C)C)cccn23)ccc1N
10,150 °C,CCOC(=O)CCP(Br)(c1ccccc1)(c1ccccc1)c1ccccc1
11,188 to 189 °C,CC(=O)c1cc(C(F)(F)F)nn1-c1ccc(NC(=O)c2ccccc2F)cc1
12,132 °C,N#CC1CC(c2ccccc2Cl)=NC1c1ccc(-c2ccc(OC(F)(F)F)cc2)cc1 (stereo not given)
13,122 to 126 °C,COc1ccc(C(=O)CC(=O)Nc2ccc(C)cc2)cc1
14,179 to 180 °C,NC(=O)N1C(=O)Cc2ccccc21
15,122 to 123 °C,COc1ccc(-c2ccccc2C(SCC(=O)c2ccccc2)C(OC(C)=O)C(N)=O)cc1 (stereo not given)
16,109 °C,CCOC(CCCNS(=O)(=O)c1ccccc1)OCC
